Experimental findings from patent publication US9051290B2, “Biaryl phosphodiesterase inhibitors” (LEO PHARMA A/S, priority 2010, dated 2015) are described below.

Human recombinant PDE4 (Genbank accession no NM—006203), sequence (Q08499 1-673 isoform Q08499-2): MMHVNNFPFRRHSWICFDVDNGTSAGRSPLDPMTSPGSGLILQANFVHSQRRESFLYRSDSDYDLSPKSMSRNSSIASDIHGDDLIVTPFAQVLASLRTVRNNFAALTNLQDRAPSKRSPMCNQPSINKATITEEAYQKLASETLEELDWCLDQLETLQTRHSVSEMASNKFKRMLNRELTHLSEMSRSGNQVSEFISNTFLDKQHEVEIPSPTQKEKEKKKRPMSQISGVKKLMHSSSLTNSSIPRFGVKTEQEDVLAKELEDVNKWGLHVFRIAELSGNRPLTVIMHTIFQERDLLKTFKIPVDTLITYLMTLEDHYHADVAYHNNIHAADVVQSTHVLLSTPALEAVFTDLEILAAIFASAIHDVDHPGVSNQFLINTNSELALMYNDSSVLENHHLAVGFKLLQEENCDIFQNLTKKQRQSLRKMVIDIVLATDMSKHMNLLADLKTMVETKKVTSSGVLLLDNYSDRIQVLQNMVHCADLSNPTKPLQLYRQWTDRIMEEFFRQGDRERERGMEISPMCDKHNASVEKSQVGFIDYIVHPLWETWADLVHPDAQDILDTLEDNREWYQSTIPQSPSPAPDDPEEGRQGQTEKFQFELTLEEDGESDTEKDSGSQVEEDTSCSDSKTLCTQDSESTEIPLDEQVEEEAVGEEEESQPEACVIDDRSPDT

For this experiment, the target named is Human recombinant PDE4 (Genbank accession no NM—006203) (Homo sapiens, UniProt Q08499). As to the kind of experiment: PDE4 assay (SPA, cleavage of cAMP). It is filed as biochemical. The settings on record: 1 hour incubation, test compound up to 10 μM, cAMP 1×10^−5M, read-out: PDE4 IC50 range. As for the experimental part:
Human recombinant PDE4 (Genbank accession no NM_006203) was incubated for 1 hour with the test compound at concentrations up to 10 μM, with cAMP (1×10^−5M), and with a low amount (0.021 MBq) of radioactively labelled cAMP. At the end of the incubation, the cleavage of the substrate was evaluated by the binding of the AMP product to SPA beads, which generate chemoluminescence when bound to the radioactive tracer. The AMP product inhibited the binding of the radioactive tracer to the beads, and the luminescent signal was competed.
The results were calculated as the molar concentrations resulting in 50% inhibition of the substrate cleavage compared to controls samples, and are expressed as a range of IC50 (M).
The compounds of the present invention were tested in the PDE4 assay.
What is called IC50 is the point on the concentration scale where inhibition reaches its midpoint. `COc1ccc(-c2cccc3c2CCC3=O)c(OCCC(C)C)c1OC` [Compound 101, 4-[3,4-Dimethoxy-2-(3-methyl-butoxy)-phenyl]-indan-1-one]: the IC50 was less than 0.1 µM.
For `COc1ccc(-c2cccc3c2CCC3=O)c(OCC2CCC2)c1OC` [Compound 102, 4-(2-Cyclobutylmethoxy-3,4-dimethoxy-phenyl)-indan-1-one] the value was less than 0.1 µM.
For the molecule `COc1ccc(-c2cccc3c2CCC3=O)c(OCc2ccc(S(C)(=O)=O)cc2)c1OC` [Compound 103, 4-[2-(4-Methanesulfonyl-benzyloxy)-3,4-dimethoxy-phenyl]-indan-1-one], the IC50 is less than 0.1 µM.
For `COc1ccc(-c2cccc3c2CCC3=O)c(OCC2(CO)COC2)c1OC` [Compound 104, 4-[2-(3-Hydroxymethyl-oxetan-3-ylmethoxy)-3,4-dimethoxy-phenyl]-indan-1-one], the IC50 is less than 0.1 µM.
With `COc1ccc(-c2cccc3c2CCC3=O)c(OCCC(C)(C)C)c1OC` [Compound 105, 4-[2-(3,3-Dimethyl-butoxy)-3,4-dimethoxy-phenyl]-indan-1-one], the IC50 was less than 0.1 µM.
On to `COc1ccc(-c2cccc3c2CCC3=O)c(OCc2ccc(C(N)=O)cc2)c1OC` [Compound 106, 4-[2,3-Dimethoxy-6-(1-oxo-indan-4-yl)-phenoxymethyl]-benzamide], for which the IC50 is less than 0.1 µM.
As for `COc1ccc(-c2cccc3c2CCC3=O)c(OCC(C)(C)CO)c1OC` [Compound 107, 4-[2-(3-Hydroxy-2,2-dimethyl-propoxy)-3,4-dimethoxy-phenyl]-indan-1-one], the IC50 is less than 0.1 µM.
Take `CNC(=O)c1ccc(COc2c(-c3cccc4c3CCC4=O)ccc(OC)c2OC)cc1` [Compound 108, 4-[2,3-Dimethoxy-6-(1-oxo-indan-4-yl)-phenoxymethyl]-N-methyl-benzamide]: the IC50 is less than 0.1 µM.
Turning to `COc1ccc(-c2cccc3c2CCC3=O)c(OCc2ccc(C(=O)N(C)C)cc2)c1OC` [Compound 109, 4-[2,3-Dimethoxy-6-(1-oxo-indan-4-yl)-phenoxymethyl]-N,N-dimethyl-benzamide], the IC50 was less than 0.1 µM.
Turning to `COc1ccc(-c2cccc3c2CCC3=O)c(OCc2cccc(C(=O)N(C)C)c2)c1OC` [Compound 110, 3-[2,3-Dimethoxy-6-(1-oxo-indan-4-yl)-phenoxymethyl]-N,N-dimethyl-benzamide], the IC50 is less than 0.1 µM.
Regarding `COc1ccc(-c2cccc3c2CCC3=O)c(OCc2cccc(S(=O)(=O)N(C)C)c2)c1OC` [Compound 111, 3-[2,3-Dimethoxy-6-(1-oxo-indan-4-yl)-phenoxymethyl]-N,N-dimethyl-benzenesulfonamide], the IC50 is less than 0.1 µM.
In the case of `COc1ccc(-c2cccc3c2CCC3=O)c(OCc2ccc(S(N)(=O)=O)cc2)c1OC` [Compound 112, 4-[2,3-Dimethoxy-6-(1-oxo-indan-4-yl)-phenoxymethyl]-benzenesulfonamide], the IC50 was less than 0.1 µM.
For `COc1ccc(-c2cccc3c2CCC3=O)c(OCc2cccc(S(C)(=O)=O)c2)c1OC` [Compound 113, 4-[2-(3-Methanesulfonyl-benzyloxy)-3,4-dimethoxy-phenyl]-indan-1-one], the IC50 is less than 0.1 µM.
Regarding `COc1ccc(-c2cccc3c2CCC3=O)c(OCc2cccc(C(N)=O)c2)c1OC` [Compound 114, 3-[2,3-Dimethoxy-6-(1-oxo-indan-4-yl)-phenoxymethyl]-benzamide], the concentration for half-maximal inhibition (IC50) was less than 0.1 µM.
Consider `COc1ccc(-c2cccc3c2COC3=O)c(OCc2ccc(S(C)(=O)=O)cc2)c1OC` [Compound 115, 4-[2-(4-Methanesulfonyl-benzyloxy)-3,4-dimethoxy-phenyl]-3H-isobenzofuran-1-one], for which the IC50 is less than 0.1 µM.
For `COc1ccc(-c2cccc3c2COC3=O)c(OCc2ccc(C(N)=O)cc2)c1OC` [Compound 116, 4-[2,3-Dimethoxy-6-(1-oxo-1,3-dihydro-isobenzofuran-4-yl)-phenoxymethyl]-benzamide] the value was less than 0.1 µM.
Regarding `CNC(=O)c1ccc(COc2c(-c3cccc4c3COC4=O)ccc(OC)c2OC)cc1` [Compound 117, 4-[2,3-Dimethoxy-6-(1-oxo-1,3-dihydro-isobenzofuran-4-yl)-phenoxymethyl]-N-methyl-benzamide], the IC50 was less than 0.1 µM.
As for `COc1ccc(-c2cccc3c2COC3=O)c(OCc2ccc(C(=O)N(C)C)cc2)c1OC` [Compound 118, 4-[2,3-Dimethoxy-6-(1-oxo-1,3-dihydro-isobenzofuran-4-yl)-phenoxymethyl]-N,N-dimethyl-benzamide], the IC50 was less than 0.1 µM.
Regarding `COc1ccc(-c2cccc3c2COC3=O)c(OCC2(CO)COC2)c1OC` [Compound 119, 4-[2-(3-Hydroxymethyl-oxetan-3-ylmethoxy)-3,4-dimethoxy-phenyl]-3H-isobenzofuran-1-one], the IC50 lay within 0.1 to 0.5 µM.
Regarding `COc1ccc(-c2ccc3c(c2)CCC3=O)c(OCCC(C)C)c1OC` [Compound 120, 5-[3,4-Dimethoxy-2-(3-methyl-butoxy)-phenyl]-indan-1-one], the IC50 was less than 0.1 µM.
For `COc1ccc(-c2ccc3c(c2)CCC3=O)c(OCC(C)(C)C)c1OC` [Compound 121, 5-[2-(2,2-Dimethyl-propoxy)-3,4-dimethoxy-phenyl]-indan-1-one], the half-inhibitory concentration (IC50) was less than 0.1 µM.
With `COc1ccc(-c2ccc3c(c2)CCC3=O)c(OCC2CCC2)c1OC` [Compound 122, 5-(2-Cyclobutylmethoxy-3,4-dimethoxy-phenyl)-indan-1-one], the IC50 was less than 0.1 µM.
For `COc1ccc(-c2ccc3c(c2)CCC3=O)c(OCCC(C)(C)C)c1OC` [Compound 123, 5-[2-(3,3-Dimethyl-butoxy)-3,4-dimethoxy-phenyl]-indan-1-one] the value was less than 0.1 µM; for `COc1ccc(-c2ccc3c(c2)CCC3=O)c(OCc2ccc(C(N)=O)cc2)c1OC` [Compound 124, 4-[2,3-Dimethoxy-6-(1-oxo-indan-5-yl)-phenoxymethyl]-benzamide], less than 0.1 µM; for `COc1ccc(-c2ccc3c(c2)CCC3=O)c(OCC(C)(C)CO)c1OC` [Compound 125, 5-[2-(3-Hydroxy-2,2-dimethyl-propoxy)-3,4-dimethoxy-phenyl]-indan-1-one], less than 0.1 µM.
As to `CNC(=O)c1ccc(COc2c(-c3ccc4c(c3)CCC4=O)ccc(OC)c2OC)cc1` [Compound 126, 4-[2,3-Dimethoxy-6-(1-oxo-indan-5-yl)-phenoxymethyl]-N-methyl-benzamide], the IC50 was less than 0.1 µM.
As for `COc1ccc(-c2ccc3c(c2)CCC3=O)c(OCc2ccc(C(=O)N(C)C)cc2)c1OC` [Compound 127, 4-[2,3-Dimethoxy-6-(1-oxo-indan-5-yl)-phenoxymethyl]-N,N-dimethyl-benzamide], the IC50 was less than 0.1 µM.
Regarding `COc1ccc(-c2ccc3c(c2)CCC3=O)c(OCc2cccc(C(=O)N(C)C)c2)c1OC` [Compound 128, 3-[2,3-Dimethoxy-6-(1-oxo-indan-5-yl)-phenoxymethyl]-N,N-dimethyl-benzamide], the IC50 is less than 0.1 µM.
As for `COc1ccc(-c2ccc3c(c2)CCC3=O)c(OCC2(CO)COC2)c1OC` [Compound 129, 5-[2-(3-Hydroxymethyl-oxetan-3-ylmethoxy)-3,4-dimethoxy-phenyl]-indan-1-one], the IC50 is 0.1 to 0.5 µM.
Take `COc1ccc(-c2ccc3c(c2)CCC3=O)c(OCc2ccc(S(C)(=O)=O)cc2)c1OC` [Compound 130, 5-[2-(4-Methanesulfonyl-benzyloxy)-3,4-dimethoxy-phenyl]-indan-1-one]: the IC50 is less than 0.1 µM.
